The record followed here is patent US8198311B2, “Modulators of glucocorticoid receptor, AP-1, and/or NF-κB activity and use thereof” (Bristol-Myers Squibb Company, priority 2006, dated 2012).

The target of assay [1] is T1, human full-length glucocorticoid receptor (Homo sapiens, UniProt P04150).
T1 construct: recombinantly expressed human full-length glucocorticoid receptor; purchased PanVera Co., Madison, Wis; P2816
T1 sequence (P04150 1-777): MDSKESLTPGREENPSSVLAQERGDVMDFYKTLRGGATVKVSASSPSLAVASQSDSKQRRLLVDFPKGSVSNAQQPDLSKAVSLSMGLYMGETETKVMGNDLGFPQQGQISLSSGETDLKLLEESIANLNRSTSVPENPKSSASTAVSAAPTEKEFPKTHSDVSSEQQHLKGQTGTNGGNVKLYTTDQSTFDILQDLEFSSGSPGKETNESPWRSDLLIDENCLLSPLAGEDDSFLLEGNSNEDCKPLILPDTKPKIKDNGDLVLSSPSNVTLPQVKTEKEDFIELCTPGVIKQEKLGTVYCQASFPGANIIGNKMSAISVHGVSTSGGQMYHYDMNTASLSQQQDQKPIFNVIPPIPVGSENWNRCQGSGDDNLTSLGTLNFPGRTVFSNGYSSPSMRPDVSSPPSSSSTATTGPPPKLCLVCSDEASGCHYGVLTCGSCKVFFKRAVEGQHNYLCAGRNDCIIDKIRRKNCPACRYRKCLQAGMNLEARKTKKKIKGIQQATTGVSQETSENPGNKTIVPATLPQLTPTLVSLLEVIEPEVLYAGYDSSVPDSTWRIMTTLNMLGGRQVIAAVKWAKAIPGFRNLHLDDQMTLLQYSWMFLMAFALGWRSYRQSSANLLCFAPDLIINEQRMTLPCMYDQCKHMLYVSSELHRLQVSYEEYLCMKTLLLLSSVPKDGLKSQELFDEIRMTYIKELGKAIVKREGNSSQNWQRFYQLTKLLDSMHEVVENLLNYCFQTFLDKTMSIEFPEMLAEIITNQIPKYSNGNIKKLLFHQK
Nature of the assay: Glucocorticoid Receptor Binding Assay (II), fluorescence polarization competitor kit (Fluormone GS1). The conditions noted are these: cell lysate with recombinant human full-length GR. The method, then:
In order to measure the binding of compounds on the glucocorticoid receptor a commercially available kit was used (Glucocorticoid receptor competitor assay kit, PanVera Co., Madison, Wis., P2816). Briefly, a cell lysate containing recombinantly expressed human full-length glucocorticoid receptor was mixed with a fluorescently labeled glucocorticoid (1 nM Fluormone GS1) in the presence or absence of test compound. After one hour at room temperature, the fluorescence polarization (FP) of the samples were measured. […] Test molecules were analyzed in the concentration range from 2.4 nM to 40 microMolar.
On the technique in general: In fluorescence polarisation assays a small probe gives low polarisation when free and higher when bound to something large.

Assay [2] relates to AP-1 induced transcriptional activity. Nature of the assay: Cellular Transrepressional Assay (AP-1 luciferase reporter in A549 cells, PMA-activated). It counts as cell-based. The conditions noted are these: Homo sapiens, A549, 7 h, pAP-1-Luc, 10 ng/ml PMA, read-out: AP-1 (EC50, nM) (Cellular Transrepression Assay). In outline:
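A549 cells stably carrying a 7×AP-1-luciferase reporter, stimulated with 10 ng/ml PMA with or without compound (0.1 nM-40 μM) for 7 h. Luciferase luminescence read 10 min after reagent addition; repression is percentage decrease of PMA-alone signal, EC50 by curve fitting.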

Assay [3] addresses T2, human glucocorticoid receptor (Homo sapiens, UniProt P04150).
T2 construct: purified human recombinant full-length glucocorticoid receptor (2 nM); purchased Invitrogen Part # 2893
T2 sequence (P04150 1-777): T1 sequence (P04150 1-777)
Nature of the assay: Glucocorticoid Receptor Binding Assay (I), fluorescence polarization competitor kit (Fluormone GS Red). The settings on record: purified human recombinant full-length GR. The procedure, abridged: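 Fluorescence polarization competition: full-length recombinant human GR (2 nM) incubated with 1 nM Fluormone GS Red plus test compound (8.5E-05 to 5 μM) for 2 h at room temperature in the dark before FP read-out.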

A value given as a limit tells only on which side of the number the result lay.

Regarding `CC(C)CC(c1ccc2c(cnn2-c2ccc(F)cc2)c1)C(C)(C)CNC(=O)NC(C)C` (stereo not shown) [Example 34, 1-(3-(1-(4-fluorophenyl)-1H-indazol-5-yl)-2,2,5-trimethylhexyl)-3-isopropylurea], the Ki in assay [1] was determined as 7.1 nM; in assay [3], 1.1 nM. The 50% effective concentration (EC50) in assay [2] came to 129 nM.
The matching figures for `CC(C)CC(c1ccc2c(cnn2-c2ccc(F)cc2)c1)C(C)(C)CNC(=O)NC(C)(C)C` (stereo not shown) [Example 28, 1-tert-butyl-3-(3-(1-(4-fluorophenyl)-1H-indazol-5-yl)-2,2,5-trimethylhexyl)urea]: 4.9 nM, 4.2 nM and 21 nM.
For `CC(C)CC(c1ccc2c(cnn2-c2ccc(F)cc2)c1)C(C)(C)CNC(=O)NC1CC1` (stereo not shown) [Example 26, 1-cyclopropyl-3-(3-(1-(4-fluorophenyl)-1H-indazol-5-yl)-2,2,5-trimethylhexyl)urea], the Ki in assay [1] worked out at 8.6 nM; in assay [3], 3.1 nM. The concentration giving a half-maximal response (EC50) in assay [2] is 965 nM.
With `CC(C)CC(c1ccc2c(cnn2-c2ccc(F)cc2)c1)C(C)(C)CNC(=O)N1CCCC(C)(C)C1` (stereo not shown) [Example 30, N-(3-(1-(4-fluorophenyl)-1H-indazol-5-yl)-2,2,5-trimethylhexyl)-3,3-dimethylpiperidine-1-carboxamide], the inhibition constant Ki in assay [1] was determined as 27 nM; in assay [3], 8.5 nM. The EC50 in assay [2] was more than 10000 nM.
Take `CC(C)(CNC(=O)NCC(F)(F)F)[C@@H](c1ccccc1)c1ccc2c(cnn2-c2ccc(F)cc2)c1` [Example 8, (S)-1-(3-(1-(4-fluorophenyl)-1H-indazol-5-yl)-2,2-dimethyl-3-phenylpropyl)-3-(2,2,2-trifluoroethyl)urea]: the Ki worked out at 9 nM in assay [1] and 17 nM in assay [3]. Moreover, the EC50 in assay [2] turned out to be 48 nM.
For `CC(C)(C(c1ccccc1)c1ccc2c(cnn2-c2ccc(F)cc2)c1)C(O)C1CC1` (stereo not shown) [Example 122, 1-cyclopropyl-3-(1-(4-fluorophenyl)-1H-indazol-5-yl)-2,2-dimethyl-3-phenylpropan-1-ol] the same measures were 34 nM, 37 nM and more than 10000 nM.
The matching figures for `CC(O)C(C)(C)C(c1ccccc1)c1ccc2c(cnn2-c2ccc(F)cc2)c1` (mixture of isomers) [Example 119, 4-(1-(4-Fluorophenyl)-1H-indazol-5-yl)-3,3-dimethyl-4-phenylbutan-2-ol]: 26 nM, 53 nM and more than 10000 nM.
The matching figures for `CC(C)CC(c1ccc2c(cnn2-c2ccc(F)cc2)c1)C(C)(C)CNC(=O)N(C)C(C)(C)C` (stereo not shown) [Example 31, 1-tert-butyl-3-(3-(1-(4-fluorophenyl)-1H-indazol-5-yl)-2,2,5-trimethylhexyl)-1-methylurea]: 19 nM, 28 nM and 394 nM.
As for `CC(C)CC(c1ccc2c(cnn2-c2ccc(F)cc2)c1)C(C)(C)CNC(=O)NC(C)(C)CO` (stereo not shown) [Example 29, 1-(3-(1-(4-fluorophenyl)-1H-indazol-5-yl)-2,2,5-trimethylhexyl)-3-(1-hydroxy-2-methylpropan-2-yl)urea], the values for the inhibition constant (Ki) in assay [1] and in assay [3] were 8 nM and 2.5 nM, respectively. Also, in assay [2], the 50% effective concentration (EC50) amounted to 86 nM.
Take `CC(C)CC(c1ccc2c(cnn2-c2ccc(F)cc2)c1)C(C)(C)CNC(=O)OCC(F)(F)F` (stereo not shown) [Example 60, 2,2,2-trifluoroethyl 3-(1-(4-fluorophenyl)-1H-indazol-5-yl)-2,2,5-trimethylhexylcarbamate]: the results for the Ki in assay [1] and in assay [3] were 24 nM and 41 nM, respectively. In addition, in assay [2], the EC50 was found to be 234 nM.
Consider `CC(C)(CNC(=O)CC(F)(F)F)[C@H](c1ccccc1)c1ccc2c(cnn2-c2ccc(F)cc2)c1` [(R)-17, (R)-3,3,3-trifluoro-N-(3-(1-(4-fluorophenyl)-1H-indazol-5-yl)-2,2-dimethyl-3-phenylpropyl)-propanamide], for which the Ki in assay [1] was determined as 12 nM. For the same molecule, the half-maximal effective concentration (EC50) in assay [2] amounted to 99 nM.
For `CC(C)(CNC(=O)C(F)(F)C(F)(F)F)[C@@H](c1ccccc1)c1ccc2c(cnn2-c2ccc(F)cc2)c1` [Example 19, (S)-2,2,3,3,3-pentafluoro-N-(3-(1-(4-fluorophenyl)-1H-indazol-5-yl)-2,2-dimethyl-3-phenylpropyl)propanamide] the same measures were 11 nM and more than 10000 nM.
For `CC(C)(C(O)Cc1ccccc1)C(c1ccccc1)c1ccc2c(cnn2-c2ccc(F)cc2)c1` (stereo not shown) [Example 124, 4-(1-(4-fluorophenyl)-1H-indazol-5-yl)-3,3-dimethyl-1,4-diphenylbutan-2-ol] the same measures were 75 nM and more than 10000 nM.
The matching figures for `O=C(CC(F)(F)F)NCCC(c1ccccc1)c1ccc2c(cnn2-c2ccc(F)cc2)c1` (stereo not shown) [Example 111, 3,3,3-Trifluoro-N-(3-(1-(4-fluorophenyl)-1H-indazol-5-yl)-3-phenylpropyl)propanamide]: 12 nM and 240 nM.
As to `CC(C)(C)NC(=O)NCC(C)(C)[C@@H](c1ccccc1)c1ccc2c(cnn2-c2ccc(F)cc2)c1` [Example 9, (S)-1-tert-butyl-3-(3-(1-(4-fluorophenyl)-1H-indazol-5-yl)-2,2-dimethyl-3-phenylpropyl)urea], the figures for the inhibitory constant (Ki) in assay [1] and in assay [3] were 5.6 nM and 8.3 nM, respectively. In addition, the half-maximal effective concentration (EC50) in assay [2] stood at 29 nM.
As to `CC(C)CC(c1ccc2c(cnn2-c2ccc(F)cc2)c1)C(C)(C)CNC(=O)CC(F)(F)F` (single isomer, unassigned) [Example 59B, 3,3,3-trifluoro-N-(3-(1-(4-fluorophenyl)-1H-indazol-5-yl)-2,2,5-trimethylhexyl)propanamide], in assay [1], the Ki came out at 9.3 nM. In addition, the 50% effective concentration (EC50) in assay [2] was more than 10000 nM.
Regarding `CC(C)(C(c1ccccc1)c1ccc2c(cnn2-c2ccc(F)cc2)c1)C(C)(O)C(F)(F)F` (mixture of isomers) [Example 128, 1,1,1-Trifluoro-4-(1-(4-fluorophenyl)-1H-indazol-5-yl)-2,3,3-trimethyl-4-phenylbutan-2-ol], the Ki in assay [1] was 16 nM. In addition, the concentration giving a half-maximal response (EC50) in assay [2] was more than 10000 nM.
`CC(C)(CNC(=O)C(F)(F)F)[C@H](c1ccccc1)c1ccc2c(cnn2-c2ccc(F)cc2)c1` [(R)-16, (R)-2,2,2-trifluoro-N-(3-(1-(4-fluorophenyl)-1H-indazol-5-yl)-2,2-dimethyl-3-phenylpropyl)acetamide]: the inhibition constant Ki in assay [1] came to 7.4 nM. In addition, the EC50 in assay [2] is 61 nM.
Turning to `Cn1ncc2cc([C@H](c3ccccc3)C(C)(C)CNC(=O)CC(F)(F)F)ccc21` [Example 84, (S)—N-(2,2-Dimethyl-3-(1-methyl-1H-indazol-5-yl)-3-phenylpropyl)-3,3,3-trifluoropropanamide], the inhibition constant (Ki) in assay [1] worked out at 115 nM. Besides, in assay [2], the EC50 is more than 10000 nM.
The matching figures for `CC(C)S(=O)(=O)NCC(C)(C)[C@@H](c1ccccc1)c1ccc2c(cnn2-c2ccc(F)cc2)c1` [Example 7, (S)-N-(3-(1-(4-fluorophenyl)-1H-indazol-5-yl)-2,2-dimethyl-3-phenylpropyl)propane-2-sulfonamide]: 6.1 nM and 139 nM.
In the case of `CC(C)n1ncc2cc([C@H](c3ccccc3)C(C)(C)CNS(=O)(=O)CC(F)(F)F)ccc21` [Example 87, (S)—N-(2,2-Dimethyl-3-(1-isopropyl-1H-indazol-5-yl)-3-phenylpropyl)-2,2,2-trifluoroethanesulfonamide], the inhibition constant (Ki) in assay [1] came out at 33 nM. The EC50 in assay [2] is more than 10000 nM.
Consider `Cn1ncc2cc([C@H](c3ccccc3)C(C)(C)CNS(=O)(=O)CC(F)(F)F)ccc21` [Example 85, (S)—N-(2,2-Dimethyl-3-(1-methyl-1H-indazol-5-yl)-3-phenylpropyl)-2,2,2-trifluoroethanesulfonamide], for which, in assay [1], the inhibitory constant (Ki) came to 2890 nM. Also, in assay [2], the concentration for a half-maximal effect (EC50) is more than 10000 nM.

Usually Ki stands for a dissociation constant, usually derived from enzyme kinetics or from competition with a known ligand. The term EC50 denotes the midpoint of the concentration-response curve.
